Data published in US20120283280A1, “IMIDAZOTETRAZINONE-BASED COMBI-MOLECULES” (priority 2011, published 2012).
“Also recorded” adds a separate entry of the source.

Columns and labels:
EGFR tyrosine kinase = biological target: T1, EGFR tyrosine kinase (Homo sapiens, UniProt P00533); assay: EGFR kinase enzyme assay (ELISA, PGT phosphorylation); format: biochemical; details: for IC50: 8 minute exposure, PGT substrate, read-out: IC50, EGFR TK inhibition
T1 construct: purchased
Method: EGFR Kinase Enzyme Assay: The EGFR kinase assay was performed following a known procedure. Briefly, Nunc MaxiSorp (Nalge Nunc International, Rochester, N.Y., USA) 96-well plates were incubated overnight at 37° C. with 100 μL/well of […] poly(L-glutamic acid-L-tyrosine, 4:1) PGT in PBS. Excess PGT was removed and the plates were washed three times with wash buffer (0.1% Tween-20 in PBS). The kinase reaction was performed using commercially available isolated EGFR (4.5 ng/well). The compound was added and phosphorylation was initiated by the addition of 20 μL/well of ATP (50 μM). After 8 min at room temperature with constant shaking, the reaction was terminated by aspiration of the reaction mixture and rinsing of the plates (four times) with wash buffer. Phosphorylated PGT was detected following a 25 min incubation with 50 μL/well of horseradish peroxidase-conjugated PY20 anti-phosphotyrosine antibody (Santa Cruz Biotechnology, Santa Cruz, Calif., USA) diluted to […] in blocking buffer (3% bovine serum albumin and 0.05% Tween-20 in PBS). The antibody was removed by aspiration and the plates washed four times with wash buffer. The signals were developed by the addition of 50 μL/well of 3,3′,5,5′-tetramethylbenzidine peroxidase substrate (Kirkegaard and Perry Laboratories, Gaithersberg, Md., USA). Following blue color development, H2SO4 (50 μL; 0.09 M) was added per well to stop the reaction. The plates were read at 450 nm using a Bio-Rad ELISA reader (model 2550; Bio-Rad, Hercules, Calif., USA).
Inhibition of EGFR TK: The EGFR TK inhibitory activity of JDF12 and its metabolite JDF04R was tested in a short 8 minute exposure to an ELISA assay. The assay was based on the inhibition of phosphorylation of poly(L-glutamic acid-L-tyrosine, 4:1) (PGT) by EGFR tyrosine kinase. […] As expected, the EGFR TK-inhibitory activity of MTZ was negligible (FIG. 1).

[1] = biological target: T2, EGFR autophosphorylation in DU145 cells (Homo sapiens, UniProt P00533); assay: EGFR phosphorylation assay, whole cell (Western blot); format: cell-based
T2 construct: endogenous in cells; host or cells: DU145
T2 sequence (P00533 25-1210): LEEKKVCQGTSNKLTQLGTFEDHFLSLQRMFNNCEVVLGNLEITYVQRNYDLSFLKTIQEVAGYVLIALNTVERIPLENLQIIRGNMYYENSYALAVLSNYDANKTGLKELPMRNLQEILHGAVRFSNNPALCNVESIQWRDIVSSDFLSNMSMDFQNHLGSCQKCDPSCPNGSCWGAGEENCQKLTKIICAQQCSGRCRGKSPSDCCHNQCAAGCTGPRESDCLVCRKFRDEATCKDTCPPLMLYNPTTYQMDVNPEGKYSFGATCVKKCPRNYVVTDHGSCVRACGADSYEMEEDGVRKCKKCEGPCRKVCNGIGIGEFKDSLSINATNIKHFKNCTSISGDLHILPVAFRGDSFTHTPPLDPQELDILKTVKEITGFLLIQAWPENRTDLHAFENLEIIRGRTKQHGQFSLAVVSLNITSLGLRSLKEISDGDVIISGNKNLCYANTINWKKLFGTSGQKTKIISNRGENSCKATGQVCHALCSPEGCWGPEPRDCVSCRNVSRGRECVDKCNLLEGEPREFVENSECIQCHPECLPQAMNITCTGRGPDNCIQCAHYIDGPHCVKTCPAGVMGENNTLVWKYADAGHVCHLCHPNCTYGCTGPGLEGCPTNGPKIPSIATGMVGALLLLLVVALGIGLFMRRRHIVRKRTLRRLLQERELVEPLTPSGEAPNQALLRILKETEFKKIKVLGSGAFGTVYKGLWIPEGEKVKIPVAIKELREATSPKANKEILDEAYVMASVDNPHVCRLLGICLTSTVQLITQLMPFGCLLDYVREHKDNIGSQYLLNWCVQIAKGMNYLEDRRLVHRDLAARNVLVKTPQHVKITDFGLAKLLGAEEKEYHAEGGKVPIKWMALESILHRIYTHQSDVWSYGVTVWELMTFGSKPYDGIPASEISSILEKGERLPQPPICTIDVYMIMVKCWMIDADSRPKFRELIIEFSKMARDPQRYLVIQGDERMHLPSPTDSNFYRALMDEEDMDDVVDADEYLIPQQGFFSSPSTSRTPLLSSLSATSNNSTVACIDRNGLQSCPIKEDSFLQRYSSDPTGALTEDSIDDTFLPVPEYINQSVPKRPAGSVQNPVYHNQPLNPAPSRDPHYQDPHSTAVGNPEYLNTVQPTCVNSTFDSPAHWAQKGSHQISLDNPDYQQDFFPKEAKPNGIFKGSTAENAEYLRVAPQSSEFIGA
Method: EGFR Phosphorylation Assay: DU145 cells (1×10^6) were preincubated in a six-well plate using 10% serum at 37° C. over a period of 24 h followed by a starving period of 24 h. The cells where then exposed to a dose range of each drug over a period of 2 h and subsequently treated with 50 ng/ml of EGF for 20 min at 37° C. The cells were washed with PBS and resuspended in cold lysis buffer [50 mmol/L Tris-HCl (pH 7.5), 150 mmol/L NaCl, 1% NP40, 1 mmol/L EDTA, 5 mmol/L NaF, 1 mmol/L Na3VO4, protease inhibitor tablet (Roche Biochemicals, Laval, Quebec, Canada)]. The lysates were kept on ice for 30 min and collected by centrifugation at 10,000 rpm for 20 min at 4° C. The concentrations of protein were determined using the Bio-Rad protein assay kit (Bio-Rad Laboratories, Hercules, Calif.). Equal amounts of protein […] were subjected to a 10% SDS-polyacrylamide gel electrophoresis (SDS-PAGE) and transferred to a polyvinylidene difluoride membrane (Millipore, Bedford, Mass.). Nonspecific binding on the membrane was minimized with a blocking buffer containing bovine serum albumin (5%) in PBS-Tween 20. The membranes were subsequently incubated with primary anti-phosphotyrosine antibody (Upstate Biotechnology, Lake Placid, N.Y.) for the detection of phosphotyrosine. The membranes were stripped and reprobed with anti-EGFR (Neomarkers, Fremont, Calif.) for determination of corresponding receptor levels. Blots were incubated with horseradish peroxidase-goat anti-mouse antibody (1:1,000 dilution; Cell Signaling Research, Beverly, Mass.), and the bands visualized with an enhanced chemiluminescence system (Amersham Pharmacia Biotech,. Little Chalfont, UK). Band intensities were measured using the SynGene GeneTools software package.
Inhibition of EGFR TK in Whole Cell Assay: DU145 cells were starved for 24 h and stimulated with EGF in the presence of the different drugs over a period of 2 h. Inhibition of autophosphorylation of EGFR was analyzed by Western blotting. The observed order of potency from this whole cell assay paralleled the one previously observed with ELISA. […]

DU145 cells [2] = assay: Alkaline comet assay for quantization of DNA damage; format: cell-based, human
Method: Alkaline Comet Assay for Quantization of DNA Damage: A modified alkaline comet assay technique was used for quantization of DNA damage induced in DU145 cells. The cells were exposed to a dose range of the drugs (JDF12, JDF04R, or MTZ) over a period of 2 h and harvested with trypsin-EDTA. The cells were subsequently collected by centrifugation and resuspended in PBS. The resulting cell suspensions were diluted to 3×10^5 cell/mL and mixed with agarose (0.75%) in PBS at 37° C. in a 1:9 dilution. The gels were cast on Gelband strips (Mandel Scientific, Guelph, Ontario, Canada) using gel casting chambers and then immediately placed into a lysis buffer (2.5 M NaCl, 0.1 M tetrasodium EDTA, 10 mM Trisbase, 1% (v/v) N-lauryl sarcosine, 10% (v/v) DMSO, and 1% (v/v) Triton X-100). After being kept overnight at 4° C., the gels were gently rinsed with distilled water and immersed in a second lysis buffer (2.5 M NaCl, 0.1 M tetrasodium EDTA, 10 mM Tris base) containing 1 mg/mL proteinase K for 60 min at 37° C. The cells were subsequently rinsed with distilled water, incubated in alkaline electrophoresis buffer for 30 min at 37° C. and electrophoresed at 400 mA for 20 min. The gels were then rinsed with distilled water and placed into 1 M ammonium acetate for 30 min. The gels were subsequently soaked in 100% ethanol for 2 h, dried overnight and stained with SYBR Gold (1:10000 dilution of stock supplied by Molecular Probes, Eugene, Oreg.) for 20 min. Comets were visualized at 330× magnification and DNA damage was assessed using the tail moment parameter (i.e. the distance between the barycenter of the head and the tail of the comet multiplied by the percentage DNA in the tail region). A minimum of 50 cell comets were analyzed for each sample, using Comet Assay χ v4.2 image analysis software, and the values presented as average tail moments for the entire cell population.
The reactive nature of the latter species makes its detection very difficult. However, the induction of DNA damage (i.e. DNA alkylation) represents evidence of its formation and fleeting presence.

[3] = system: DU145, LNCaP, LNCaPEGFR, and LNCaPerb2 cell lines; assay: Growth inhibition assay (SRB), comparisons over all four cell lines; format: cell-based
Excerpt: Each point represents the average of at least two independent experiments run in triplicate.

DU145 cells [4] = assay: Annexin V binding analysis (apoptosis); format: cell-based, human; details: 25 μM, 48 h exposure
Method: Annexin V binding Analysis: Cells were pre-incubated in 6-well plates until confluence and then exposed to a dose range of each drug over a period 48 h. The cells were subsequently harvested and incubated with annexin V-FITC and propidium iodide (PI) using the apoptosis Detection Kit (BD Bioscience Pharmingen, USA) and the supplier's protocol. Annexin V-FITC and PI binding were analyzed using a Becton-Dickinson FACScan. Data were collected using logarithmic amplification of both the FL1 (FITC) and FL2 (PI) channels. Quadrant analysis of coordinate dot plots was performed with CellQuest software.
Induction of Apoptosis: Annexin V-FITC (FL1-H) and PI (FL2-H) staining (detected by flow cytometry) was used to distinguish viable (PI-/FITC−), early apoptotic (PI-/FITC+), late apoptotic (PI+/FITC+) and necrotic (PI+/FITC−) cells. […] JDF04R, Iressa and MTZ however, induced only barely detectable levels of apoptosis (<10%). The results are indicative that the combined EGFR TK inhibitory and DNA damaging properties of JDF12 can induce more cell apoptosis than observed with a single-function drug (e.g. Iressa and MTZ) alone (FIG. 7a-c).

[5] = Dose finding and comparative toxicity study in mice; format: in vivo; design: key to Vital Sign, Day 8 / Vital Sign, Day 10 / Vital Sign, Day 16 / Vital Sign, Day 1 / Vital Sign, Day 3 / Vital Sign, Day 6: Normal (i.e. No sign of Toxicity); BCS = 2: BCS (Body Condition Score) = 2 indicates that mice are underconditioned (observable signs include segmentation of the vertebral column, palpability of the dorsal pelvic bones); details: for Vital Sign, Day 1 / Vital Sign, Day 3 / Vital Sign, Day 6 / Vital Sign, Day 8 / Vital Sign, Day 10 / Vital Sign, Day 16: CD-1 mice (n = 6), 100 mg/kg once every other day
Excerpt: The results are further illustrated hereinbelow in Table 4.

DU145 cell line = assay: Mouse xenograft study (DU145); details: for antitumor activity: DU145 xenograft, 100 mg/kg i.p. every other day, 31 days after treatment
DU145 = assay: Growth inhibition assay (SRB), DU145; details: Homo sapiens, DU-145, 144 h, read-out: IC50 (x ± SD)
Method: (§1) Cell Culture: The human prostate cancer cell line DU145 was obtained from the American Type Culture Collection (Manassas, Va.)). The androgen-sensitive prostate cancer cell lines LNCaP-FGC, LNCaP-EGFR and LNCaP-erbB2 (stably transfected with EGFR erbB2 gene respectively) were generous gifts from Dr. Moulay Aloui-Jamali (Jewish General Hospital, Montreal, Quebec, Canada). […] The cultures were maintained in logarithmic growth by harvesting with a trypsin-EDTA solution containing 0.5 mg/mL trypsin and 0.2 mg/mL EDTA and replating before confluence. In all assays, the cells were plated over a period of time ranging from 24-48 h prior to drug administration.

LNCaP-WT = assay: Growth inhibition assay (SRB), LNCaP-WT; details: 144 h, read-out: IC50 (x ± SD)
Method: as §1

LNCaP-EGFR = assay: Growth inhibition assay (SRB), LNCaP-EGFR; details: 144 h, read-out: IC50 (x ± SD)
Method: as §1

LNCaP-ErbB2 = assay: Growth inhibition assay (SRB), LNCaP-ErbB2; details: 144 h, read-out: IC50 (x ± SD)
Method: as §1

[6] = listed as Mitozolomide, 100 mg/kg

T1 sequence (P00533 25-1210): as above

Structure (SMILES) | IC50 (EGFR tyrosine kinase; ELISA) [µM] | DNA damage (tail moment) (DU145 cells [2]; DU145 cells, 2 h exposure) | Vital Sign, Day 1 [5] | Vital Sign, Day 3 [5] | Vital Sign, Day 6 [5] | Vital Sign, Day 8 [5] | Vital Sign, Day 10 [5] | Vital Sign, Day 16 [5] | toxicity at 100 mg/kg ([5]; CD-1 mice, 100 mg/kg) | IC50 (DU145) [µM] | IC50 (LNCaP-WT) [µM] | IC50 (LNCaP-EGFR) [µM] | IC50 (LNCaP-ErbB2) [µM] | further results
O=C(Nc1ccc2ncnc(Nc3cccc(Cl)c3)c2c1)c1ncn2c(=O)n(CCCl)nnc12 [JDF12] | 0.62 | dose-dependent DNA damage | Normal | Normal | Normal | Normal | Normal | Normal | no signs of toxicity; also recorded: minor toxicity | 11.3 ± 0.22 | 13.2 ± 3.88 | 12 ± 0.57 | 13.3 ± 2.02 | IC50 ([1]; DU145 cells, EGF stimulated, 2 h drug exposure): 12 µM; potency less than that of JDF04R (fold) ([1]; DU145 whole cell assay): approximately 2 fold; DNA damage, fold less than MTZ (DU145 cells [2]; DU145 cells, 2 h exposure): 2 fold; increased anti-proliferation potency compared to Iressa (fold) ([3]; four cell lines): 2-3 fold; increased anti-proliferation potency compared to MTZ (fold) ([3]; four cell lines): 10-16 fold; more potent than equimolar combination of MTZ with Iressa or JDF04R (fold) ([3]; four cell lines): 1.7 fold; more potent than the equieffective 2-drug combination (fold) ([3]; identical conditions): more than 1.3 fold; late apoptosis (DU145 cells [4]): significant increase in late apoptosis; MTD at 14 days ([5]; male, CD-1, mouse, in vivo, mice, weight loss over a 14-day period, two animals per group, read-out: maximum tolerated dose): 100 mg/kg; weight loss during the efficacy study (DU145 cell line; CD-1 mice, 100 mg/kg, FIG. 8c): No weight loss; antitumor activity (DU145 cell line; 100 mg/kg): significant antitumor activity; also recorded: superior to that of an equidose of Iressa
Nc1[nH]cnc1C(=O)Nc1ccc2ncnc(Nc3cccc(Cl)c3)c2c1 [JDF04R] | 0.23 | did not demonstrate any DNA damaging activity | – | – | – | – | – | – | – | 151 ± 17 | 178 ± 13.3 | 119 ± 4.1 | 111 ± 18.1 | more potent EGFR TK inhibitor than JDF12 (fold) (EGFR tyrosine kinase; JDF04R vs JDF12, ELISA IC50): 2.7 fold; inhibition of EGFR TK ([1]; DU145 cells, at concentrations as low as 6 μM): ~100%
COc1cc2ncnc(Nc3ccc(F)c(Cl)c3)c2cc1OCCCN1CCOCC1 [Iressa] | – | – | Normal | Normal | Normal | Normal | Normal | Normal | no signs of toxicity | – | – | – | – | antitumor activity (DU145 cell line): did not show significant antitumor activity
NC(=O)c1ncn2c(=O)n(CCCl)nnc12 [MTZ, 8-carbamoyl-3-(2-chloroethyl)imidazo[5,1-d]-1,2,3,5-tetrazin-4(3H)-one] | – | – | Normal | Normal | – | – | – | – | toxic at this dose | 179 ± 21.1 | 150 ± 7.92 | 176 ± 6.51 | 142 ± 8.93 | EGFR TK-inhibitory activity (EGFR tyrosine kinase; ELISA, FIG. 1): negligible; level of DNA damage, fold higher than JDF12 (DU145 cells [2]): approximately 2 fold; Vital Sign, Day 6 [5, 6]: Weight loss > 20% (1 mouse); also recorded: Death (1 mouse); also recorded: (BCS = 2); Vital Sign, Day 8 [5, 6]: (BCS = 2); also recorded: Weight loss > 20% (1 mouse); Vital Sign, Day 10 [5, 6]: (BCS = 2); also recorded: Weight loss > 20% (1 mouse); Vital Sign, Day 16 [5, 6]: (BCS = 2); also recorded: All Mice Thin; also recorded: Death (3 mice); overall body condition score (BCS) ([5]; CD-1 mice, 100 mg/kg, 6-10 days after initiating treatment): 2
